IC50 data for two compounds are collected here from patent US20260224536A1, “ARYL HETEROCYCLIC KV1.3 INHIBITOR, PREPARATION METHOD THEREFOR, AND USE THEREOF” (SHANGHAI SHENSHI WISE TECHNOLOGY CO., LTD., priority 2022, published 2026).

Each structure is given as a SMILES string.

What all share (format): cell-based
Assay [1] has as its target T1, Kv1.2 potassium channel (Homo sapiens, UniProt P16389).
T1 construct: expressed in transfected cells
Kind of assay: Whole-cell patch-clamp assay for inhibitory activity against Kv1.2 (steady state current). To be noted: HEK293 cells stably expressing Kv1.2, patch-clamp, read-out: IC50 for inhibition of Kv1.2. The method, then: (§1) HEK293 cells stably expressing Kv1.X (Kv1.1, Kv1.2, Kv1.3, Kv1.4, Kv1.5) potassium channels were cultured in DMEM medium containing 10% fetal bovine serum and 800 μg/mL G418 (geneticin) at a culture temperature of 37° C. and a carbon dioxide concentration of 5%.
(§2) The extracellular fluid contained […], 3.5 mM KCl, 1 mM MgCl2·6H2O, 2 mM CaCl2·2H2O, 10 mM D-glucose, 10 mM HEPES, 1.25 mM NaH2PO4·2H2O, and the pH was adjusted to 7.4 with NaOH. The intracellular fluid contained 20 mM KCl, 115 mM K-Aspartic, 1 mM MgCl2·6H2O, 5 mM EGTA, 10 mM HEPES, 2 mM Na2-ATP, and the pH was adjusted to 7.2 with KOH.
(§3) The voltage stimulation protocol for recording whole-cell Kv1.X potassium currents via patch-clamp was as follows. After formation of a whole-cell seal, the cell membrane voltage was clamped at −80 mV, and then stepped to +40 mV for 500 ms. […] Then, a slow capacitance compensation was given, and the membrane capacitance and series resistance were recorded. […]
(§4) Once the whole-cell recorded Kv1.X current stabilized, drug administration was started. […] For each cell, the current detected in the compound-free extracellular liquid was used as its own control group. […]
(§5) and then the inhibition rate corresponding to each drug concentration was calculated
(§6) Subsequently, the mean, standard deviation (SD), and standard error (SE) were calculated for the inhibition rate corresponding to each concentration. […]

For assay [2], the target named is Kv1.5 potassium channel (Homo sapiens, UniProt P22460). Kind of assay: Whole-cell patch-clamp assay for inhibitory activity against Kv1.5 (steady state current). To be noted: HEK293 cells stably expressing Kv1.5, patch-clamp, read-out: IC50 for inhibition of Kv1.5. The method, then:
as §1, §2, §3, §4, §5, §6
For orientation: The patch-clamp technique gives a direct electrical read-out from membranes.

The target of assay [3] is Kv1.4 potassium channel (Homo sapiens, UniProt P22459). Kind of assay: Whole-cell patch-clamp assay for inhibitory activity against Kv1.4 (peak current). The settings on record: HEK293 cells stably expressing Kv1.4, patch-clamp, read-out: IC50 for inhibition of Kv1.4. The protocol: as §1, §2, §3, §4, §5, §6
The target of assay [4] is T2, hERG potassium channel (Homo sapiens, UniProt Q12809).
T2 construct: expressed in transfected cells
The experiment in a line: Whole-cell voltage clamp assay for inhibitory activity against hERG. To be noted: CHO cells stably expressing hERG, peak tail current at -50 mV, read-out: IC50 for inhibition of hERG. The method, then:
CHO cells stably expressing hERG were cultured in 35 mm diameter cell culture dishes at 37° C. in a 5% CO2 incubator. The cells were passaged at a ratio of 1:5 every 48 h. The culture medium recipe was as follows: 90% F12 (Invitrogen), 10% fetal bovine serum (Gibco), 100 µg/mL G418 (Invitrogen), and 100 µg/mL Hygromycin B (Invitrogen). On the day of the test, the cell culture fluid was aspirated, and the cells were rinsed once with the extracellular fluid. […] The digestion solution was then aspirated, and the cells were resuspended with the extracellular fluid and transferred to an experimental dish for electrophysiological recording for later use. hERG potassium channel currents were recorded at room temperature by the whole-cell voltage clamp technique in the CHO cells stably expressing hERG potassium channels. Glass microelectrodes were formed by pulling a glass electrode blank (BF150-86-10, Sutter) using a puller. The tip resistance after perfusion with the electrode internal solution was about 2-5 MΩ. […] The clamping voltage and data recording were controlled and recorded by a computer with the pClamp software, with a sampling frequency of 10 kHz and a filtering frequency of 2 kHz. […] This voltage stimulation was applied every 5 s, and after the hERG potassium currents were determined to be stable (for 1 min), the drug administration process was started. […]
A general note: hERG is a cardiac potassium channel; its block is linked to QT prolongation.

The target in assay [5] is T3, Kv1.1 potassium channel (Homo sapiens, UniProt Q09470).
T3 construct: expressed in transfected cells
Kind of assay: Whole-cell patch-clamp assay for inhibitory activity against Kv1.1 (steady state current). The settings on record: HEK293 cells stably expressing Kv1.1, patch-clamp, read-out: IC50 for inhibition of Kv1.1. The method, then: as §1, §2, §3, §4, §5, §6

Assay [6] deals with Kv1.3 potassium channel (Homo sapiens, UniProt P22001). Kind of assay: Whole-cell patch-clamp assay for inhibitory activity against Kv1.3 (peak current). To be noted: HEK293 cells stably expressing Kv1.3, patch-clamp. The method in brief:
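Whole-cell currents evoked by a step from −80 mV holding to +40 mV for 500 ms at room temperature. Concentrations perfused cumulatively, low to high, each for 5 min or until steady state. Peak current normalised to each cell's compound-free control; IC50 from nonlinear fit, ≥3 cells per concentration.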

Broadly, the IC50 is the concentration that inhibits the measured activity by half.

Chain of Kv1.5 potassium channel (P22460 whole entry): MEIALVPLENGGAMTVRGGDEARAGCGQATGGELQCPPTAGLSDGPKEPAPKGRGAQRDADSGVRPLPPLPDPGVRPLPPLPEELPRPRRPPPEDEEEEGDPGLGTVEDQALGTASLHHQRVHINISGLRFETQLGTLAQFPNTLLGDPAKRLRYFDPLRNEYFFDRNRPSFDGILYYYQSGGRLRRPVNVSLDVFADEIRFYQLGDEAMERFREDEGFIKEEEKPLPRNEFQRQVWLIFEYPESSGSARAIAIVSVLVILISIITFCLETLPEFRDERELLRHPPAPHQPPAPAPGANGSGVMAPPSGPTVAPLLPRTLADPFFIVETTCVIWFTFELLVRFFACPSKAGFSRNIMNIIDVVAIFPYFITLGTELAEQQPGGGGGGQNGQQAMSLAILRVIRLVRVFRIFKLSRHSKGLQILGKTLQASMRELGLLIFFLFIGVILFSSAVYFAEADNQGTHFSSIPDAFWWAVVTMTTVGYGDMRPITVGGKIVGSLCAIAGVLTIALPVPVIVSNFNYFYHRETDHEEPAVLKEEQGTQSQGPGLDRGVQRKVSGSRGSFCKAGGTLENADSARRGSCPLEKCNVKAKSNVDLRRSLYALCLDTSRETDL
Chain of Kv1.4 potassium channel (P22459 whole entry): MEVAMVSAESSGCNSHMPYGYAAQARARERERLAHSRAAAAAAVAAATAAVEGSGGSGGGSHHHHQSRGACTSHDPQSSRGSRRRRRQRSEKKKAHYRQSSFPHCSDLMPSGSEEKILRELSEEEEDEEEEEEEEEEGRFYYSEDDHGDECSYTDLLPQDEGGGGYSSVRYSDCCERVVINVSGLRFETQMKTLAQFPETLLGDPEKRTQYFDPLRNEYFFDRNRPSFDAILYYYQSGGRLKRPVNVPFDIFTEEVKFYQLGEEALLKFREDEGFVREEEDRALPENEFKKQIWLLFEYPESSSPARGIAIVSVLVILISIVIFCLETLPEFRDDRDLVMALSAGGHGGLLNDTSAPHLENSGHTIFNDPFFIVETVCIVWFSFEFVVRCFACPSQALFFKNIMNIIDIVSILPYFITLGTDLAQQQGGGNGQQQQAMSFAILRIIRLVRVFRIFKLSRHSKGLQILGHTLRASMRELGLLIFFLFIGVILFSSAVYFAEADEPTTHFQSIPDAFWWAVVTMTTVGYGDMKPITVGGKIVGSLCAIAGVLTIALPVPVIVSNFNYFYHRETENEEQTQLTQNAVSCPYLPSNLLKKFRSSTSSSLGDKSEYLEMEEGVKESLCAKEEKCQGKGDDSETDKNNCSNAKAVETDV
T2 sequence (Q12809 whole entry): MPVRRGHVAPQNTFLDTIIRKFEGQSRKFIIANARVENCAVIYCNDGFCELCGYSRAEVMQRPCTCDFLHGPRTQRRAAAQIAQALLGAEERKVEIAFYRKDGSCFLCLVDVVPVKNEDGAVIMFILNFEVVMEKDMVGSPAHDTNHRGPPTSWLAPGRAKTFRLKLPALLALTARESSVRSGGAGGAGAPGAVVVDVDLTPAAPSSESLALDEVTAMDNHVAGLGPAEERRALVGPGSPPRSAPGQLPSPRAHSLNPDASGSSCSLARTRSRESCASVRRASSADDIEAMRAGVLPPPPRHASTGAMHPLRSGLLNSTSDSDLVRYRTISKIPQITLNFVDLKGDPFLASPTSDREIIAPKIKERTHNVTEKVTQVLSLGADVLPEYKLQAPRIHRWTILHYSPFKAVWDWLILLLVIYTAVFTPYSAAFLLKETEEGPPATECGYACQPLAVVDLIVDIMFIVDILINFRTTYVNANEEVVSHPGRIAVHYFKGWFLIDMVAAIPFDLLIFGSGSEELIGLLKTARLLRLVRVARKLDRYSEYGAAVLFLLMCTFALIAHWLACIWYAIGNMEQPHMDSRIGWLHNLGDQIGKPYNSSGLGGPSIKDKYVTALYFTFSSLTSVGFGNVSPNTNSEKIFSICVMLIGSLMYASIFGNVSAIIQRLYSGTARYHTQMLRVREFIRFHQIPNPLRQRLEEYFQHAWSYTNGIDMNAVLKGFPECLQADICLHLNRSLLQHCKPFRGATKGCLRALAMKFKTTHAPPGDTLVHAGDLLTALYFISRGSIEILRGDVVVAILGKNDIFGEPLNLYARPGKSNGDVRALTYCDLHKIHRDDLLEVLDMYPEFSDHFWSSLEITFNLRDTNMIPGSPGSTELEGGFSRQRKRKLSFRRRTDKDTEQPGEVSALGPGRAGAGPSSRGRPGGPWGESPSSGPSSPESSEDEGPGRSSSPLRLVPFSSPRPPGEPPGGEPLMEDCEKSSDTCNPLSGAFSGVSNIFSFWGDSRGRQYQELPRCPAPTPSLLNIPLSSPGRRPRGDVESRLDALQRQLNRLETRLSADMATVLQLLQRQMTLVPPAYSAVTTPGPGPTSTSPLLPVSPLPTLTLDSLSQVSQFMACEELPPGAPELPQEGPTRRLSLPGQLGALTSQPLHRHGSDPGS
T3 sequence (Q09470 whole entry): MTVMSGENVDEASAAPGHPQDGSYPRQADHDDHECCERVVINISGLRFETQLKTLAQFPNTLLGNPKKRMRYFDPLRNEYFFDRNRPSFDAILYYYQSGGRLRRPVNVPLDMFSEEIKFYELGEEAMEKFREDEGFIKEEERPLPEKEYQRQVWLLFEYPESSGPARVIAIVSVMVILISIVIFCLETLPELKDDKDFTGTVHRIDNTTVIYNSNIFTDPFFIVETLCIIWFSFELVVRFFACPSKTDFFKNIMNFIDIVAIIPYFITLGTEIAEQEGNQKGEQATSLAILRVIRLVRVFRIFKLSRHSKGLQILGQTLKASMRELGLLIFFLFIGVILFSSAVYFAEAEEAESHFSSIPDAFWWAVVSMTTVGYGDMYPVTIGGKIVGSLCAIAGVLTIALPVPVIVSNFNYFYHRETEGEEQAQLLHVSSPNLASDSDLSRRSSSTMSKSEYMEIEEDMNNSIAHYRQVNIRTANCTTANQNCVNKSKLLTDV
Chain of Kv1.3 potassium channel (P22001 whole entry, the tested form may be a part): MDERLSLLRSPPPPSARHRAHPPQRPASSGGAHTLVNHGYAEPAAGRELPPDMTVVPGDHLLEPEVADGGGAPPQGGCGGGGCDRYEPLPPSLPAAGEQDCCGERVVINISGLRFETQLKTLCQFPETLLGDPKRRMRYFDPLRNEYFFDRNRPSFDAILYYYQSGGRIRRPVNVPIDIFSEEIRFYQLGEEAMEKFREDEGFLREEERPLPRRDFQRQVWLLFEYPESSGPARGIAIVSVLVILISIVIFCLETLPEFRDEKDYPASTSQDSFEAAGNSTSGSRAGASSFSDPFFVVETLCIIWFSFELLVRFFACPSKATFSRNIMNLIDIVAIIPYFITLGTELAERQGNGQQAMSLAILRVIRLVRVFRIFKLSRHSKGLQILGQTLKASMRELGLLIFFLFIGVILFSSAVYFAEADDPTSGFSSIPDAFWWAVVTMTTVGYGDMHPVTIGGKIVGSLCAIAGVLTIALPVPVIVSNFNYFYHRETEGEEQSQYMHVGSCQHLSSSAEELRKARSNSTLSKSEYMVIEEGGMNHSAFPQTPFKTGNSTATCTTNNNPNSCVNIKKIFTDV
T1 sequence (P16389 whole entry): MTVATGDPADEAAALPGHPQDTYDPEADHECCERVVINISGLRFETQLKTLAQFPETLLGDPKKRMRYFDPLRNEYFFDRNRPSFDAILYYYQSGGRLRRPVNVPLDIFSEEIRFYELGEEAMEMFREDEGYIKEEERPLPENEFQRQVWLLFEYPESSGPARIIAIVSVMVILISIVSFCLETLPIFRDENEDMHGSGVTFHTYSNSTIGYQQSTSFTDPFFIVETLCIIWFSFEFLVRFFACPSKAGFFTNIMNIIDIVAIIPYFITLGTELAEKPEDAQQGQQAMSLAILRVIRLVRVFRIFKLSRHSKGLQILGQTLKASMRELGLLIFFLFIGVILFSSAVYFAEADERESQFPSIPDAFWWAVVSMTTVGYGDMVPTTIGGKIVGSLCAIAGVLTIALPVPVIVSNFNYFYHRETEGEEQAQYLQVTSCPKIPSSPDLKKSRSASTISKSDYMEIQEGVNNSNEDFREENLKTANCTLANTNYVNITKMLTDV

As to `Oc1ccc(Cl)c(Cl)c1[C@@H]1Cc2nnc([C@@H]3CCOC3)n2C1` [Example 54, 3,4-Dichloro-2-((S)-3-((S)-tetrahydrofuran-3-yl)-6,7-dihydro-5H-pyrrolo[2,1-c][1,2,4]triazol-6-yl)phenol], the IC50 in assay [1] was greater than 100 µM; in assay [2], greater than 100 µM; in assay [3], greater than 30 µM; in assay [4], greater than 30 µM; in assay [5] it was greater than 100 µM; in assay [6] it was 0.0077 µM.
`OCc1nnc2n1C[C@H](c1c(O)ccc(Cl)c1Cl)C2` [Example 2, (S)-3,4-dichloro-2-(3-(hydroxymethyl)-6,7-dihydro-5H-pyrrolo[2,1-c][1,2,4]triazol-6-yl)phenol]: the IC50 in assay [1] is greater than 100 µM; in assay [2], greater than 100 µM; in assay [3], greater than 30 µM; in assay [4], greater than 30 µM; in assay [5] it was greater than 100 µM; in assay [6], 0.0281 µM.
